Measurements: PubChem BioAssay AID330 (DTP/NCI, 2004)
Several values for one entry are separate records, joined by “and”; a condition that tells them apart may be missing. Equal entries are not always repeated. Toxic doses and inconclusive results are not listed. Rule for the calls: active = survival T/C of 150% or more; inactive = T/C below 125% in these data. Peptide text beside a SMILES is read from it.

Test system: P388 leukemia ip, CD2F1 mice, survival T/C
Experiment: NCI In Vivo Anticancer Drug Screen. Data for tumor model P388 Leukemia (intraperitoneal) in CD2F1 (CDF1) mice
Conditions: endpoint: median survival time, higher = longer survival
How it was run: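 Mice carrying the transplanted tumor received test compound or vehicle. Survival was recorded in each group, and the value is the treated-group measurement divided by that of the vehicle-treated control group.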

[1] = dose: 60.0 mg/kg/injection, schedule: Q01DX005 (ip), vehicle: saline with Tween-80
[2] = dose: 50.0 mg/kg/injection, schedule: Q01DX005 (ip), vehicle: saline with Tween-80
[3] = dose: 100.0 mg/kg/injection, schedule: Q01DX005 (ip), vehicle: saline with Tween-80
[4] = dose: 200.0 mg/kg/injection, schedule: Q01DX005 (ip), vehicle: saline with Tween-80
[5] = dose: 25.0 mg/kg/injection, schedule: Q01DX009 (ip), vehicle: saline with Tween-80
[6] = dose: 50.0 mg/kg/injection, schedule: Q01DX009 (ip), vehicle: saline with Tween-80
[7] = dose: 100.0 mg/kg/injection, schedule: Q01DX009 (ip), vehicle: saline with Tween-80
[8] = dose: 100.0 mg/kg/injection, schedule: Q04DX003 (ip), vehicle: saline

Measured: T/C

O=S(=O)(F)c1ccc(C[P+](c2ccccc2)(c2ccccc2)c2ccccc2)cc1Cl
inactive: dose: 15.0 mg/kg/injection, schedule: Q01DX005 (ip), vehicle: saline with Tween-80 111 % of control | dose: 30.0 mg/kg/injection, schedule: Q01DX005 (ip), vehicle: saline with Tween-80 106 % of control | [1] 110 % of control and 86 % of control

O=C(Nc1cccc(C(F)(F)F)c1)Oc1ccc(Cl)cc1C(=O)c1ccccc1
inactive: dose: 50.0 mg/kg/injection, schedule: Q01DX009 (ip), vehicle: saline 97 % of control | dose: 100.0 mg/kg/injection, schedule: Q01DX009 (ip), vehicle: saline 92 % of control | dose: 200.0 mg/kg/injection, schedule: Q01DX009 (ip), vehicle: saline 96 % of control

CCOC(=O)C1C(=O)CN(C(=O)OC)C1C (stereo unspecified)
inactive: [2] 96 % of control | [3] 99 % of control | [4] 93 % of control

COc1cc2ccnc(-c3nccc4cc(OC)c(OC)cc34)c2cc1OC
inactive: dose: 100.0 mg/kg/injection, schedule: Q01DX001 (ip), vehicle: saline with Tween-80 97 % of control | dose: 200.0 mg/kg/injection, schedule: Q01DX001 (ip), vehicle: saline with Tween-80 92 % of control | dose: 400.0 mg/kg/injection, schedule: Q01DX001 (ip), vehicle: saline with Tween-80 97 % of control

CCOC(=O)N1CCN(c2cc(C)nc3cc(OC)ccc23)CC1
inactive: [1] 88 % of control | dose: 120.0 mg/kg/injection, schedule: Q01DX005 (ip), vehicle: saline with Tween-80 94 % of control

COc1ccc(N2C(=O)/C(=C/c3ccccc3)N=C2/C=C/c2ccc(Cl)cc2)cc1
inactive: dose: 15.0 mg/kg/injection, schedule: Q01DX005 (ip), vehicle: Klucel + Tween-80 93 % of control | dose: 30.0 mg/kg/injection, schedule: Q01DX005 (ip), vehicle: Klucel + Tween-80 95 % of control | dose: 60.0 mg/kg/injection, schedule: Q01DX005 (ip), vehicle: Klucel + Tween-80 107 % of control and 96 % of control

COc1cccc2c1C(=O)c1c(O)c3c(c(O)c1C2=O)C[C@@](O)(C(C)=O)C[C@@H]3OC1CC(N)C(OC2CC(O)C(O)C(C)O2)C(C)O1 (stereo partly specified)
inactive: dose: 2.25 mg/kg/injection, schedule: Q04DX003 (ip), vehicle: distilled water + Tween-80 113 % of control | dose: 4.5 mg/kg/injection, schedule: Q04DX003 (ip), vehicle: distilled water + Tween-80 113 % of control | dose: 6.25 mg/kg/injection, schedule: Q04DX003 (ip), vehicle: distilled water + Tween-80 112 % of control | dose: 9.0 mg/kg/injection, schedule: Q04DX003 (ip), vehicle: distilled water + Tween-80 123 % of control | dose: 12.5 mg/kg/injection, schedule: Q04DX003 (ip), vehicle: distilled water + Tween-80 112 % of control | dose: 25.0 mg/kg/injection, schedule: Q04DX003 (ip), vehicle: distilled water + Tween-80 119 % of control | dose: 36.0 mg/kg/injection, schedule: Q04DX003 (ip), vehicle: distilled water + Tween-80 123 % of control | dose: 100.0 mg/kg/injection, schedule: Q04DX003 (ip), vehicle: distilled water + Tween-80 118 % of control

CC(C)CC(NC(=O)C(CC(=O)O)NC(=O)C(N)CO)C(=O)N1CCCC1C(=O)NC(CCC(N)=O)C(=O)NC(C(=O)O)C(C)O (stereo unspecified) (H-SDLPQT-OH; configuration not given here)
inactive: dose: 9.0 mg/kg/injection, schedule: Q01DX005 (ip), vehicle: water 110 % of control | dose: 18.0 mg/kg/injection, schedule: Q01DX005 (ip), vehicle: water 107 % of control | dose: 36.0 mg/kg/injection, schedule: Q01DX005 (ip), vehicle: water 107 % of control | dose: 72.0 mg/kg/injection, schedule: Q01DX005 (ip), vehicle: water 107 % of control | dose: 144.0 mg/kg/injection, schedule: Q01DX005 (ip), vehicle: water 100 % of control

CC(C)(C)c1cc(C=O)cc(C(C)(C)C)c1O
inactive: [5] 99 % of control | [6] 100 % of control | [7] 96 % of control | dose: 200.0 mg/kg/injection, schedule: Q01DX009 (ip), vehicle: saline with Tween-80 91 % of control

CN(C)CCCNc1nc2ccccc2c2ccnn12
inactive: dose: 5.5 mg/kg/injection, schedule: Q01DX009 (ip), vehicle: saline 109 % of control | dose: 11.0 mg/kg/injection, schedule: Q01DX009 (ip), vehicle: saline 100 % of control | dose: 22.0 mg/kg/injection, schedule: Q01DX009 (ip), vehicle: saline 100 % of control

CC1=NCCN1CCNC(=O)c1ccc(C(=O)NCCN2CCN=C2C)cc1
inactive: dose: 1.88 mg/kg/injection, schedule: Q01DX005 (ip), vehicle: saline with Tween-80 105 % of control | dose: 3.75 mg/kg/injection, schedule: Q01DX005 (ip), vehicle: saline with Tween-80 100 % of control | dose: 7.5 mg/kg/injection, schedule: Q01DX005 (ip), vehicle: saline with Tween-80 100 % of control and 115 % of control

CCCCCCCCCCCOC(=O)c1ccc(O)cc1
inactive: dose: 12.5 mg/kg/injection, schedule: Q01DX009 (ip), vehicle: saline with Tween-80 98 % of control | [5] 102 % of control | [6] 105 % of control and 106 % of control | [7] 103 % of control

CC[N+](C)(CC)CCNC(=O)Nc1ccc(-c2ccc(NC(=O)NCC[N+](C)(CC)CC)c(OC)c2)cc1OC
inactive: dose: 6.25 mg/kg/injection, schedule: Q01DX009 (ip), vehicle: saline 98 % of control | dose: 12.5 mg/kg/injection, schedule: Q01DX009 (ip), vehicle: saline 96 % of control

O=C1c2ccccc2-c2c1c1ccccc1c(=O)n2Cc1ccco1
inactive: dose: 0.75 mg/kg/injection, schedule: Q01DX005 (ip), vehicle: saline with Tween-80 100 % of control | dose: 1.5 mg/kg/injection, schedule: Q01DX005 (ip), vehicle: saline with Tween-80 100 % of control | dose: 3.0 mg/kg/injection, schedule: Q01DX005 (ip), vehicle: saline with Tween-80 103 % of control

COCC1(C)CCCC2(C)C1CCC13CCCCC12O3 (stereo unspecified)
inactive: dose: 100.0 mg/kg/injection, schedule: Q01DX001 (ip), vehicle: Klucel (hydroxypropylcellulose) (HPC) 100 % of control | dose: 200.0 mg/kg/injection, schedule: Q01DX001 (ip), vehicle: Klucel (hydroxypropylcellulose) (HPC) 100 % of control | dose: 400.0 mg/kg/injection, schedule: Q01DX001 (ip), vehicle: Klucel (hydroxypropylcellulose) (HPC) 100 % of control

O=C1CN(C2CCCCC2)CC(=O)N2CCCCN12
inactive: dose: 50.0 mg/kg/injection, schedule: Q01DX005 (ip), vehicle: saline 108 % of control | dose: 100.0 mg/kg/injection, schedule: Q01DX005 (ip), vehicle: saline 105 % of control | dose: 200.0 mg/kg/injection, schedule: Q01DX005 (ip), vehicle: saline 103 % of control

Cc1ccc(S(=O)(=O)ON/N=c2\ccn(C)c3ccccc23)cc1
inactive: [8] 101 % of control | dose: 200.0 mg/kg/injection, schedule: Q04DX003 (ip), vehicle: saline 99 % of control | dose: 400.0 mg/kg/injection, schedule: Q04DX003 (ip), vehicle: saline 99 % of control

C/C(=N\Nc1cc(C)c2cccc(C)c2n1)c1ccccn1
inactive: [2] 105 % of control | [3] 91 % of control | [4] 91 % of control

COc1cccc2c1C(=O)c1c(O)c3c(c(O)c1C2=O)CC(O)(C(O)CO)CC3OC1CC(N2CCSCC2)C(O)C(C)O1 (stereo unspecified)
inactive: dose: 3.12 mg/kg/injection, schedule: Q04DX003 (ip), vehicle: saline 103 % of control | dose: 6.25 mg/kg/injection, schedule: Q04DX003 (ip), vehicle: saline 110 % of control | dose: 12.5 mg/kg/injection, schedule: Q04DX003 (ip), vehicle: saline 110 % of control and 112 % of control | dose: 25.0 mg/kg/injection, schedule: Q04DX003 (ip), vehicle: saline 122 % of control | [8] 122 % of control
